Reference: patent US20200115357A1, “LIVER X RECEPTORS (LXR) MODULATORS” (Phenex-FXR GmbH, priority 2017, published 2020)

Experiments:
[1] = target: T1, GST-LXRβ ligand-binding domain (Homo sapiens, UniProt P55055, DUP175-175); assay: TR-FRETβ activity assay (LXRβ-LBD / NCoA3 coactivator peptide, prestimulated with 24(S)-25-epoxycholesterol); type: biochemical; parameters: key to behavior in FRET assay: ag=agonist; ia=inverse agonist; conditions: for EC50 / FRETβ activity range (EC50): 1 μM 24(S)-25-epoxycholesterol as prestimulating agonist; for EC50: read-out: FRETβ activity range (EC50); for behavior in FRET assay: agonist or inverse agonist
T1 construct: amino acids 156-461; NP009052; made in house; host or cells: E. coli
T1 sequence (P55055 with tags, fused parts or gaps DUP175-175): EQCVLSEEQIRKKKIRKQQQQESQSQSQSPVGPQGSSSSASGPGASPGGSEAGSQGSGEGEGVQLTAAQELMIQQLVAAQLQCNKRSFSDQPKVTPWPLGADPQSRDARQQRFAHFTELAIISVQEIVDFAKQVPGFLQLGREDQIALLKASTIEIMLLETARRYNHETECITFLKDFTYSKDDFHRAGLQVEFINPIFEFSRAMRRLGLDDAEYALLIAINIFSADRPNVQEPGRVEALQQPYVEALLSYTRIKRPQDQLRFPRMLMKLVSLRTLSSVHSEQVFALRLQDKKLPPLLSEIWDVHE
Description: The tested compounds were usually dissolved, tested and stored as 20 mM stock solutions in DMSO. […] Sulfonyl acetic acid derivatives are shelf stable as solid at rt for long time as reported by Griesbrecht et al. (Synlett 2010:374) or Faucher et al. (J. Med. Chem. 2004; 47:18). TR-FRETβ Activity Assay Recombinant GST-LXRβ ligand-binding domain (LBD; amino acids 156-461; NP009052; SEQ ID NO:2) was expressed in E. coli and purified via gluthatione-sepharose affinity chromatography. N-terminally biotinylated NCoA3 coactivator peptide (SEQ ID NO:1) was chemically synthesized (Eurogentec). […] Finally, a detection mix was added containing anti GST-Tb cryptate (CisBio; 610SAXLB) and Streptavidin-XL665 (CisBio; 610SAXLB) as fluorescent donor and acceptor, respectively, as well as the coactivator peptide and LXRβ-LBD protein (SEQ ID NO:2). The reaction was mixed thoroughly, equilibrated for 1 h at 4° C. and vicinity of LXRβ and coactivator peptide was detected by measurement of fluorescence in a VictorX4 multiplate reader (PerkinElmer Life Science) using 340 nm as excitation and 615 and 665 nm as emission wavelengths. Assays were performed in triplicates. Final Assay Concentrations of Components: 240 mM KCl, 1 μg/μL BSA, 0.002% Triton-X-100, […] anti GST-Tb cryptate, 2.5 ng/μL Streptavidin-XL665, coactivator peptide (400 nM), LXRβ protein ([…], i.e. 76 nM)

[2] = target: T2, LXRα ligand-binding domain (LBD) (Homo sapiens, UniProt Q13133); assay: LXR Gal4 reporter transient transfection assay (M2H), Gal4α LBD; type: cell-based; conditions: HEK293 cells; read-out: M2H Gal4α LBD activity range (EC50)
T2 construct: expressed in transfected cells; host or cells: HEK293
T2 sequence (Q13133 155-447): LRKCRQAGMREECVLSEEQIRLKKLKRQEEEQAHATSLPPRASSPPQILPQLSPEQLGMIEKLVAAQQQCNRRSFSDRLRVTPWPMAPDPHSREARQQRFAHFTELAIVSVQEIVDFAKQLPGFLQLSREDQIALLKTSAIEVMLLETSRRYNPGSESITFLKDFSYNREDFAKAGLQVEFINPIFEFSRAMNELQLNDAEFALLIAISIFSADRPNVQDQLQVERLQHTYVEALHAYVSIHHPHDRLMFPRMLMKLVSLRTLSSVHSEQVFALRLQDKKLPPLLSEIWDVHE
Description: (§1) The tested compounds were usually dissolved, tested and stored as 20 mM stock solutions in DMSO. Since sulfonyl acetic acid derivatives tend to decarboxylate under these conditions, these stock solutions were prepared, tested and stored as 20 mM DMSO stock solutions containing 100 mM trifluoroacetic acid (5 equivalents). Sulfonyl acetic acid derivatives are shelf stable as solid at rt for long time as reported by Griesbrecht et al. (Synlett 2010:374) or Faucher et al. (J. Med. Chem. 2004; 47:18).
(§2) LXR Gal4 Reporter Transient Transfection Assays
(§3) LXRα and LXRβ activity status was determined via detection of interaction with coactivator and corepressor proteins in mammalian two-hybrid experiments (M2H). For this, via transient transfection the full length (FL) proteins of LXRα (amino acids 1-447; NP005684; SEQ ID NO:7) or LXRβ-(amino acids 1-461; NP009052; SEQ ID NO:8) or the ligand-binding domains (LBD) of LXRα (amino acids 155-447 SEQ ID NO:3) or LXRβ (amino acids 156-461; SEQ ID NO:4) were expressed from pCMV-AD (Stratagene) as fusions to the transcriptional activation domain of NFkB. As cofactors, domains of either the steroid receptor coactivator 1 (SRC1; amino acids 552-887; SEQ ID NO:5) or of the corepressor NCoR (amino acids 1903-2312 SEQ ID NO:6) were expressed as fusions to the DNA binding domain of the yeast transcription factor GAL4 (from pCMV-BD; Stratagene). Interaction was monitored via activation of a coexpressed Firefly Luciferase Reporter gene under control of a promoter containing repetitive GAL4 response elements (vector pFRLuc; Stratagene). Transfection efficiency was controlled via cotransfection of constitutively active pRL-CMV Renilla reniformis luciferase reporter (Promega). HEK293 cells were grown in minimum essential medium (MEM) with 2 mM L-glutamine and Earle's balanced salt solution supplemented with 8.3% fetal bovine serum, 0.1 mM non-essential amino acids, 1 mM sodium pyruvate, at 37° C. in 5% CO2. 3.5×10^4 cells/well were plated in 96-well cell culture plates in growth medium supplemented with 8.3% fetal bovine serum for 16-20 h to ˜90% confluency. For transfection, medium was taken off and LXR and cofactor expressing plasmids as well as the reporter plasmids are added in 30 μL OPTIMEM/well including polyethylene-imine (PEI) as vehicle. Typical amounts of plasmids transfected/well: pCMV-AD-LXR (5 ng), pCMV-BD-cofactor (5 ng), pFR-Luc (100 ng), pRL-CMV (0.5 ng). Compound stocks were prepared in DMSO, prediluted in MEM to a total volume of 120 μL, and added 4 h after addition of the transfection mixture (final vehicle concentration not exceeding 0.2%). Cells were incubated for additional 16 h, lysed for 10 min in 1× Passive Lysis Buffer (Promega) and Firefly and Renilla luciferase activities were measured sequentially in the same cell extract using buffers containing D-luciferine and coelenterazine, respectively. Measurements of luminescence were done in a BMG-Iuminometer.

[3] = target: T3, LXRβ ligand-binding domain (LBD) (Homo sapiens, UniProt P55055, DUP175-175); assay: LXR Gal4 reporter transient transfection assay (M2H), Gal4β LBD; type: cell-based; conditions: HEK293 cells; read-out: M2H Gal4β LBD activity range (EC50)
T3 construct: LXRβ (amino acids 156-461); expressed in transfected cells; host or cells: HEK293
T3 sequence (P55055 with tags, fused parts or gaps DUP175-175): T1 sequence (P55055 with tags, fused parts or gaps DUP175-175)
Description: as §1, §2, §3

LXRα full length (FL) = target: T4, LXRα full length (FL) (Homo sapiens, UniProt Q13133); assay: LXR Gal4 reporter transient transfection assay (M2H), Gal4α FL; type: cell-based; conditions: HEK293 cells; read-out: M2H Gal4α FL activity range (EC50)
T4 construct: the full length (FL) proteins of LXRα (amino acids 1-447); NP005684; expressed in transfected cells; host or cells: HEK293
T4 sequence (Q13133 1-447): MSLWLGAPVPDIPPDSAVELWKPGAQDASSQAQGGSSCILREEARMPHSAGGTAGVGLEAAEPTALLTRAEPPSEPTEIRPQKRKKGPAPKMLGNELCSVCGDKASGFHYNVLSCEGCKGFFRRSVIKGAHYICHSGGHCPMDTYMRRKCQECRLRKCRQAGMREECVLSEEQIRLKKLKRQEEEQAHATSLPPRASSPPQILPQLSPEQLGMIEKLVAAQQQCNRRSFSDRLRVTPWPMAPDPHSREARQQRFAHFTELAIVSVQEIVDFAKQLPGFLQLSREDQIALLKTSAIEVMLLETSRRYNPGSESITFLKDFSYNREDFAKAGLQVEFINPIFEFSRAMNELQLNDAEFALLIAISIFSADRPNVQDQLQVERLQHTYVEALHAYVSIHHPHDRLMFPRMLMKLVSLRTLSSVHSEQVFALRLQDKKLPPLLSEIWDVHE
Description: as §1, §2, §3

LXRβ full length (FL) = target: T5, LXRβ full length (FL) (Homo sapiens, UniProt P55055, DUP175-175); assay: LXR Gal4 reporter transient transfection assay (M2H), Gal4β FL; type: cell-based; conditions: HEK293 cells; read-out: M2H Gal4β FL activity range (EC50)
T5 construct: the full length (FL) proteins of LXRα (amino acids 1-447); NP005684; NP009052; expressed in transfected cells; host or cells: HEK293
T5 sequence (P55055 with tags, fused parts or gaps DUP175-175): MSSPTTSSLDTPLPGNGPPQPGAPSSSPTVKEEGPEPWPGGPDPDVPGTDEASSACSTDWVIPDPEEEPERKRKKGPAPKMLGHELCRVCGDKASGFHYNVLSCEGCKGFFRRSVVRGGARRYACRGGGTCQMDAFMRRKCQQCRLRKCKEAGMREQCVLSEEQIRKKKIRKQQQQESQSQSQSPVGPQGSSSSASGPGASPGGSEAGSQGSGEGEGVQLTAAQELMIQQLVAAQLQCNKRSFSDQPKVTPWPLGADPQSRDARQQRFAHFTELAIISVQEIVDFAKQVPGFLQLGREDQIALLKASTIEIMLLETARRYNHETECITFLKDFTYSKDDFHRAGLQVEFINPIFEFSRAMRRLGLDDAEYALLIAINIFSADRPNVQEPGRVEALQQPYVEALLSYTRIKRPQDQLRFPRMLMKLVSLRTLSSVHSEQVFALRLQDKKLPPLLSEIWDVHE
Description: as §1, §2, §3

EC50 [1] [nM]	behavior in FRET assay [1]	EC50 [2] [nM]	EC50 [3] [nM]	EC50 (LXRα full length (FL)) [nM]	EC50 (LXRβ full length (FL)) [nM]	FRETβ activity range (EC50) [1]	Compound
1000 to 10000	ia			1000 to 10000	100 to 1000		Cc1ccc(S(=O)(=O)N(Cc2ccc(-c3cccc(S(=O)(=O)CC(=O)O)c3)cc2)Cc2ccc(C(F)(F)F)o2)c(C)c1 [10/12]
100 to 1000	ag			< 100	< 100		COc1ccc2cccnc2c1S(=O)(=O)N(Cc1ccc(-c2cccc(C(C)(C)C(=O)O)c2)cc1)Cc1ccc(C(F)(F)F)o1 [10/19]
< 100	ia			< 100	< 100		Cc1ccc2ncccc2c1S(=O)(=O)N(Cc1ccc(-c2cccc(C(C)(C)C(=O)O)c2)cc1)Cc1ccc(C(F)(F)F)o1 [10/15]
				100 to 1000	100 to 1000	inactive	Cc1ccc2cccnc2c1S(=O)(=O)N(Cc1ccc(-c2cccc(C(C)(C)C(=O)NS(C)(=O)=O)c2)cc1)Cc1ccc(C(F)(F)F)o1 [Example 29, 2-Methyl-2-(4′-(((7-methyl-N-((5-(trifluoromethyl)furan-2-yl)methyl)quinoline)-8-sulfon-amido)methyl)-[1,1′-biphenyl]-3-yl)-N-(methylsulfonyl)propanamide]
100 to 1000	ia			100 to 1000	100 to 1000		Cc1ccc2ccccc2c1S(=O)(=O)N(Cc1ccc(-c2cccc(S(=O)(=O)CC(=O)O)c2)cc1)Cc1ccc(C(F)(F)F)o1 [Example 10, 2-((4′-(((2-Methyl-N-((5-(trifluoromethyl)furan-2-yl)methyl)naphthalene)-1-sulfonamido)methyl)[1,1′-biphenyl]-3-yl)sulfonyl)acetic acid]

Second part, the compound before the results:

Compound	EC50 [1] [nM]	behavior in FRET assay [1]	EC50 [2] [nM]	EC50 [3] [nM]	EC50 (LXRα full length (FL)) [nM]	EC50 (LXRβ full length (FL)) [nM]	FRETβ activity range (EC50) [1]
Cc1cc(C)c(S(=O)(=O)N(Cc2ccc(-c3cccc(CC(=O)O)c3)cc2)Cc2cccc(C(F)(F)F)c2)c(C)c1 [2/4]	100 to 1000	ia	100 to 1000	< 100			
Cc1cc(F)cc(C)c1S(=O)(=O)N(Cc1ccc(-c2cccc(S(=O)(=O)CC(=O)O)c2)cc1)Cc1ccc(C(F)(F)F)o1 [10/2]	1000 to 10000	ia			1000 to 10000	100 to 1000	
Cc1cc(C)c(S(=O)(=O)N(Cc2ccc(-c3cccc(S(=O)(=O)CC(=O)O)c3)cc2)Cc2ccc(F)c(C)c2)c(C)c1 [11/5]	> 10000	ia			1000 to 10000	100 to 1000	
Cc1ccc2ccccc2c1S(=O)(=O)N(Cc1ccc(-c2cccc(S(=O)(=O)CC(=O)O)c2)cc1)Cc1ccc(C#N)o1 [Example 5/7]	1000 to 10000	ia			100 to 1000	100 to 1000	
Cc1cc(C)c(S(=O)(=O)N(Cc2ccc(-c3cccc(S(=O)(=O)CC(=O)O)c3)cc2)Cc2ccc(F)cc2Cl)c(C)c1 [11/11]	100 to 1000	ag			1000 to 10000	100 to 1000	
Cc1cc(C)c(S(=O)(=O)N(Cc2ccc(-c3cccc(S(=O)(=O)CC(=O)O)c3)cc2)Cc2ccc(C(F)F)o2)c(C)c1 [10/13]	1000 to 10000	ia			1000 to 10000	100 to 1000	
Cc1cc(C)c(S(=O)(=O)N(Cc2ccc(-c3cccc(S(=O)(=O)CC(=O)O)c3)cc2)Cc2cccc(Cl)c2)c(C)c1 [11/16]					1000 to 10000	100 to 1000	inactive
Cc1cc(C)c(S(=O)(=O)N(CCc2ccc(C(F)(F)F)o2)Cc2ccc(-c3cccc(S(=O)(=O)CC(=O)O)c3)cc2)c(C)c1 [Example 17/1]	1000 to 10000	ia			1000 to 10000	1000 to 10000	
